# Source: US20090176817A1, “Method of Treatment of Diarrhea-Predominant Irritable Bowel Syndrome in a Subject” (priority 2005, published 2009)
# Experiments:
# [1] = system: healthy subjects; test: Study S.241.2.106: colonic motility index; assay type: in vivo, human; settings: for colonic motility index, Comparison to Placebo: Ratio: ANOVA; for colonic motility index: arith. mean
# Experimental: The effect of cilansetron on colonic motility was evaluated in a randomized, double-blind, placebo-controlled, 3-way crossover study in 12 healthy male and female subjects (ITT population), aged 24-34 years. Subjects received cilansetron 4 mg, cilansetron 8 mg, or placebo orally TID for 7 days during each of the treatment periods, with a 7-day washout between periods. Colonic motility assessments were done on the last day of each treatment period, around the time of the last dose. Subjects were fasted for 12 hours prior to start of colonic assessments. Colonic motor activity was recorded from 30 minutes prior to dosing until 240 minutes postdose. A high-calorie meal was administered at 1 hour postdose and 1 mg neostigmine was administered intramuscularly at 2.5 hours postdose. The main objective of the assessments was to establish whether cilansetron was able to reduce colonic motor activity after meal ingestion and after neostigmine injection. The main parameter of interest was the motility index, which was measured in intervals of ten minutes for a total period of 150 minutes postprandially. The time intervals of major interest were the 30-minute interval after start of meal ingestion (91-120 minutes) and the 30-minute interval after neostigmine injection (181-210 minutes). An ANOVA was used to compare the motility indices between treatments.
# [2] = system: healthy, elderly subjects; test: Study K.241.5013: gastric emptying time, elderly, 4 mg TID; assay type: in vivo, human; settings: 4 mg TID oral 14 days, mean (SD)
# Text: The effect of cilansetron on gastric emptying time and colonic transit time has been studied in 1 clinical study in healthy young subjects and 2 studies in elderly subjects. For measurement of gastric emptying time, breath samples for the determination of the ^12C/^13C ratio were taken on the last day of each treatment period immediately after ingestion of a ^13C labeled meal. The patients' breath was collected in separate 15-minute intervals, for four hours in total. ^13CO2 measurements were performed with an isotope ratio mass spectrometer. The half-life (TK) and lag-time (Tlag), which describe the duration of gastric emptying, were used as the primary parameters to evaluate gastric emptying time. In all 3 studies, colonic transit time was measured by administration of radio-opaque markers for the last six days of each treatment period, followed by a single abdominal X-ray image at 24 hours after ingestion of the last set of markers. The numbers of markers within the colon were used to calculate segmental (right colon, left colon, and rectosigmoid) and total colonic transit time.
# Studies K.241.5013 and K.241.5014 were randomized, double-blind, placebo-controlled, 2-way crossover studies in 8 healthy male and female elderly subjects, each (ITT population, aged 64-83 years in K.241.5013 and 66-84 years in K.241.5014). […]
# [3] = After Meal Ingestion, 4 mg TID oral 7 days
# [4] = After Meal Ingestion, 8 mg TID oral 7 days
# [5] = After Neostigmine, 4 mg TID oral 7 days
# [6] = After Neostigmine, 8 mg TID oral 7 days
smiles,measurement,setting,value
"Cc1nccn1C[C@H]1CCc2c(c3cccc4c3n2CCC4)C1=O [Cilansetron, (R)-(−)-4,5,6,8,9,10-hexahydro-10-[(2-methyl-1H-imidazol-1-yl)methyl]-11H-pyrido-[3,2,1-jk]-carbazol-11-one]","colonic motility index, Comparison to Placebo: Ratio",[1]; [3],101%
same,colonic motility index,[1]; [3],20358
same,"colonic motility index, Comparison to Placebo: Ratio",[1]; [4],106%
same,colonic motility index,[1]; [4],23478
same,"colonic motility index, Comparison to Placebo: Ratio",[1]; [5],192%
same,colonic motility index,[1]; [5],50580
same,"colonic motility index, Comparison to Placebo: Ratio",[1]; [6],162%
same,colonic motility index,[1]; [6],48691
same,gastric emptying time Tlag,[2],122 (24) min
same,gastric emptying time T½,[2],183 (32) min
